Source: US20170049908A1 (priority 2015, published 2017)
Like-named read-outs stand apart in the source and are kept apart here.

Columns and labels:
[1] = system: HL60, U937, MV411, Hut78, H929, and RAMOS; test: Cytotoxic activity on six human blood cancer cell types with and without ATRA (overall statements); type: cell-based; settings: all cell lines tested except RAMOS
Protocol: Agent loading (e.g., “n” of Formula (I)) was determined to be about 4.
In this study and as determined by antibody cell staining, and with the exception of HL-60 cells, all cells expressed various levels of cell surface CD38 prior to ATRA addition.

SU-DHL-8 cells [2] = test: cells; settings: Homo sapiens, SU-DHL-8, 72 h, read-out: EC50 in picoM, SUDHL8
Ramos cells [3] = test: cells; settings: Homo sapiens, 72 h, read-out: EC50 in picoM, Ramos
Ramos cells [4] = settings: for EC50: read-out: EC50 in picoM, Ramos, Table 3, agents and agent-linker intermediates, 3 days incubation
SU-DHL-8 cells [5] = settings: for EC50: read-out: EC50 in picoM, SUDHL8, Table 3, agents and agent-linker intermediates, 3 days incubation

Compound: CC1=C(/C=C/C(C)=C/C=C/C(C)=C/C(=O)O)C(C)(C)CCC1 [ATRA, all-trans-retinoic acid]
- effect of ATRA alone on cell growth [1]: slowed cell growth

Compound: C[C@]12CC[C@H](O)C[C@H]1CC[C@@H]1[C@@H]2CC[C@]2(C)[C@@H](c3ccc(=O)oc3)CC[C@]12O [Bufalin, reference compound]
- EC50 (SU-DHL-8 cells [2]): 16 nM
- EC50 (Ramos cells [3]): 7.3 nM
- cytotoxic effect in Ramos cells, in words (Ramos cells [4]): modestly active
- cytotoxic effect in SU-DHL-8 cells, in words (SU-DHL-8 cells [5]): modestly active

Compound: C[C@]12CC[C@H](OC3OC[C@H](N)[C@@H](O)[C@@H]3O)C=C1CC[C@@H]1[C@@H]2CC[C@]2(C)[C@@H](c3ccc(=O)oc3)CC[C@]12O (stereo partly drawn) [CEN09-106, Scillarenin-4-amino-4-deoxy-L-xylopyranoside]
- EC50 (Ramos cells [4]): 1.9 nM
- EC50 (SU-DHL-8 cells [5]): 2.07 nM

Compound: C[C@]1(OC(=O)NCCCN2CCN(CCCN)CC2)CC[C@@]2(C)[C@H](CC[C@@H]3[C@@H]2CC[C@]2(C)[C@](C)(c4ccc(=O)oc4)CC[C@]32O)C1 [CEN-371, 4-(3-{(1S,2S,5S,7R,10R,11S,14S,15R)-11-Hydroxy-2,5,14,15-tetramethyl-14-(6-oxo-3-pyranyl)tetracyclo[8 0.7.0.02, 7.011, 15]heptadec-5-yloxycarbonylamino}propyl)-1-(3-aminopropyl)piperazine]
- cytotoxic effect in Ramos cells, in words (Ramos cells [4]; FIG. 4 legend, unconjugated antibody, linker-agent and agents): modestly active
- EC50 (Ramos cells [4]): 7.81 nM
- cytotoxic effect in SU-DHL-8 cells, in words (SU-DHL-8 cells [5]; FIG. 2 and FIG. 3 legends, unconjugated antibody, linker-agent and agents): modestly active
- EC50 (SU-DHL-8 cells [5]): 11 nM

Compound: CN(CCCN)CCCNC(=O)O[C@H]1CC[C@@]2(C)[C@H](CC[C@@H]3[C@@H]2CC[C@]2(C)[C@H](c4ccc(=O)oc4)CC[C@]32O)C1 [CEN-372, 5-[(1S,2S,5S,7R,10R,11S,14S,15R)-5-{3-[N-Methyl(3-aminopropyl)amino]propylaminocarbonyloxy}-11-hydroxy-2,15-dimethyltetracyclo[8.7.0.02, 7.011, 15]heptadec-14-yl]-2-pyranone]
- EC50 (SU-DHL-8 cells [2]): 4.4 nM
- EC50 (Ramos cells [3]): 3.6 nM

Compound: C[C@]12CC[C@H](OC(=O)NCCCNCCCN)C[C@H]1CC[C@@H]1[C@@H]2CC[C@]2(C)[C@H](c3ccc(=O)oc3)CC[C@]12O [CEN-373, 5-{(1S,2S,5S,7R,10R,11S,14S,15R)-5-[3-(3-Aminopropylamino)propylaminocarbonyloxy]-11-hydroxy-2,15-dimethyltetracyclo[8.7.0.02, 7.011, 15]heptadec-14-yl}-2-pyranone]
- EC50 (SU-DHL-8 cells [2]): 5.9 nM
- EC50 (Ramos cells [3]): 4 nM

Compound: C[C@]1(OC(=O)NCCCN2CCN(CCCN)CC2)CC[C@@]2(C)[C@H](CC[C@@H]3[C@@H]2CC[C@]2(C)[C@@](C)(C4=CC(=O)OC4)CC[C@]32O)C1 [CEN-381, 4-(3-{(1S,2S,5S,7R,10R,11S,14R,15R)-11-Hydroxy-2,5,14,15-tetramethyl-14-(5-oxo-2H-fur-3-yl)tetracyclo[8.7.0.02, 7.011, 15]heptadec-5-yloxycarbonylamino}propyl)-1-(3-aminopropyl)piperazine]
- EC50 (SU-DHL-8 cells [2]): > 50 nM
- EC50 (Ramos cells [3]): > 50 nM

Compound: C[C@]12CC[C@H](O)C[C@H]1CC[C@@H]1[C@@H]2CC[C@]2(C)[C@@H](C3=CC(=O)OC3)CC[C@]12O [Digitoxigenin, reference compound]
- EC50 (SU-DHL-8 cells [2]): > 50 nM
- EC50 (Ramos cells [3]): > 50 nM
